In patent publication US20250144067A1, “PERSONALIZED STARVATION THERAPY FOR CANCER” (Faeth Therapeutics, Inc., priority 2021, published 2025):
Structures can show the parent of a compound that is named as a salt.

What follows are compounds tested on NCI-H292 lung cancer cells (assay: FDA drug screening, complete media vs cholesterol-free media with simvastatin (TABLE 2)). Details: NCI-H292 cells, FDA library drug in cholesterol-free media with simvastatin 0.04 μM.
Type: cell-based, human

Q: Which “Cholesterol-free media + simvastatin (0.04 μM)” value does the source give for CC(=O)OCC(=O)[C@@]1(O)CC[C@H]2[C@@H]3CCC4=CC(=O)C=C[C@]4(C)[C@H]3C(=O)C[C@@]21C [Prednisone acetate] here?
A: 0.9605

Q: Which “Cholesterol-free media + simvastatin (0.04 μM)” value does the source give for CC(=O)[C@H]1CC[C@H]2[C@@H]3CC=C4C[C@@H](O)CC[C@]4(C)[C@H]3CC[C@]12C [Pregnenolone] here?
A: 1.424

Q: With O=[N+]([O-])c1cn2c(n1)OC[C@@H](OCc1ccc(OC(F)(F)F)cc1)C2 [Pretomanid] as the compound, how does the “Cholesterol-free media + simvastatin (0.04 μM)” value read?
A: 1.251

Same assay, conditions: NCI-H292 cells, FDA library drug in complete media

Q: Which “Complete Media” value does the source give for CC(=O)OCC(=O)[C@@]1(O)CC[C@H]2[C@@H]3CCC4=CC(=O)C=C[C@]4(C)[C@H]3C(=O)C[C@@]21C [Prednisone acetate] here?
A: 0.6606

Q: Which “Complete Media” value does the source give for CC(=O)[C@H]1CC[C@H]2[C@@H]3CC=C4C[C@@H](O)CC[C@]4(C)[C@H]3CC[C@]12C [Pregnenolone] here?
A: 0.9118

Q: With O=[N+]([O-])c1cn2c(n1)OC[C@@H](OCc1ccc(OC(F)(F)F)cc1)C2 [Pretomanid] as the compound, how does the “Complete Media” value read?
A: 0.9046

Same assay, conditions: NCI-H292 cells, cholesterol-free media with simvastatin 0.04 μM; FDA drug library screen (TABLE 2)

Q: With CCCN[C@H]1CCc2nc(N)sc2C1 [Pramipexole (dihydrochloride)] as the compound, how does the “Cholesterol-free media + simvastatin (0.04 μM)” value read?
A: 0.885

Q: With CCCN[C@H]1CCc2nc(N)sc2C1 [Pramipexole] as the compound, how does the “Cholesterol-free media + simvastatin (0.04 μM)” value read?
A: 1.074

Q: With CC(C)(C)CC(=O)OCC(=O)[C@@]1(O)CC[C@H]2[C@@H]3CCC4=CC(=O)C=C[C@]4(C)[C@H]3[C@@H](O)C[C@@]21C [Prednisolone Tebutate] as the compound, how does the “Cholesterol-free media + simvastatin (0.04 μM)” value read?
A: 0.7311

Q: CC(=O)C1CCC2C3CC=C4CC(OS(=O)(=O)O)CCC4(C)C3CCC12C (stereo not drawn) [Pregnenolone monosulfate] was tested. Which “Cholesterol-free media + simvastatin (0.04 μM)” value did it give?
A: 1.305

Same assay, conditions: NCI-H292 cells, complete media; FDA drug library screen (TABLE 2)

Q: CCCN[C@H]1CCc2nc(N)sc2C1 [Pramipexole (dihydrochloride)] was tested. Which “Complete Media” value did it give?
A: 0.866

Q: Which “Complete Media” value does the source give for CCCN[C@H]1CCc2nc(N)sc2C1 [Pramipexole] here?
A: 1.035

Q: How did the “Complete Media” value turn out when CC(C)(C)CC(=O)OCC(=O)[C@@]1(O)CC[C@H]2[C@@H]3CCC4=CC(=O)C=C[C@]4(C)[C@H]3[C@@H](O)C[C@@]21C [Prednisolone Tebutate] was run?
A: 0.7398

Q: CC(=O)C1CCC2C3CC=C4CC(OS(=O)(=O)O)CCC4(C)C3CCC12C (stereo not drawn) [Pregnenolone monosulfate] was tested. Which “Complete Media” value did it give?
A: 1.254

Same assay, conditions: complete media minus cholesterol-free media + simvastatin (0.04 μM); >0 enhanced anti-cancer activity, about 0 neutral, <0 antagonist

Q: Which Difference does the source give for CCCN[C@H]1CCc2nc(N)sc2C1 [Pramipexole (dihydrochloride)] here?
A: −0.02

Q: With CCCN[C@H]1CCc2nc(N)sc2C1 [Pramipexole] as the compound, how does the Difference read?
A: −0.04

Q: How did the Difference turn out when CC(C)(C)CC(=O)OCC(=O)[C@@]1(O)CC[C@H]2[C@@H]3CCC4=CC(=O)C=C[C@]4(C)[C@H]3[C@@H](O)C[C@@]21C [Prednisolone Tebutate] was run?
A: 0.01

Same assay, conditions: complete media minus cholesterol-free media + simvastatin (0.04 μM); […]

Q: For CC(=O)C1CCC2C3CC=C4CC(OS(=O)(=O)O)CCC4(C)C3CCC12C (stereo not drawn) [Pregnenolone monosulfate], which Difference is on record?
A: −0.05

Same assay, conditions: complete media vs cholesterol-free media + simvastatin (0.04 μM); >0 enhanced anti-cancer activity, about 0 neutral, <0 antagonist

Q: O=[N+]([O-])c1cn2c(n1)OC[C@@H](OCc1ccc(OC(F)(F)F)cc1)C2 [Pretomanid] was tested. Which Difference did it give?
A: −0.35

Same assay, conditions: complete media vs cholesterol-free media + simvastatin (0.04 μM); […]

Q: Which Difference does the source give for CC(=O)OCC(=O)[C@@]1(O)CC[C@H]2[C@@H]3CCC4=CC(=O)C=C[C@]4(C)[C@H]3C(=O)C[C@@]21C [Prednisone acetate] here?
A: −0.30

Q: With CC(=O)[C@H]1CC[C@H]2[C@@H]3CC=C4C[C@@H](O)CC[C@]4(C)[C@H]3CC[C@]12C [Pregnenolone] as the compound, how does the Difference read?
A: −0.51

Each compound was assayed on NCI-H292 lung cancer cells (assay: FDA drug screening, complete media vs cholesterol-free media without statin (TABLE 1)). Details: Complete minus Cholesterol-free; >0 enhanced anti-cancer activity, about 0 neutral, <0 antagonist.
Type: cell-based, human

Q: Which Difference does the source give for O=[N+]([O-])c1cn2c(n1)OC[C@@H](OCc1ccc(OC(F)(F)F)cc1)C2 [Pretomanid] here?
A: −0.21

Same assay, conditions: Complete minus Cholesterol-free; […]

Q: Which Difference does the source give for CC(=O)OCC(=O)[C@@]1(O)CC[C@H]2[C@@H]3CCC4=CC(=O)C=C[C@]4(C)[C@H]3C(=O)C[C@@]21C [Prednisone acetate] here?
A: −0.20

Q: How did the Difference turn out when CC(=O)C1CCC2C3CC=C4CC(OS(=O)(=O)O)CCC4(C)C3CCC12C (stereo not drawn) [Pregnenolone monosulfate] was run?
A: −0.11

Q: For CC(=O)[C@H]1CC[C@H]2[C@@H]3CC=C4C[C@@H](O)CC[C@]4(C)[C@H]3CC[C@]12C [Pregnenolone], which Difference is on record?
A: −0.56

Same assay, conditions: Complete minus Cholesterol-free; greater than 0 enhanced anti-cancer activity, about 0 neutral, below 0 antagonists

Q: Which Difference does the source give for CCCN[C@H]1CCc2nc(N)sc2C1 [Pramipexole (dihydrochloride)] here?
A: −0.49

Q: How did the Difference turn out when CCCN[C@H]1CCc2nc(N)sc2C1 [Pramipexole] was run?
A: −0.68

Same assay, conditions: NCI-H292 cells in cholesterol-free media without statin

Q: How did the Cholesterol-free turn out when CCCN[C@H]1CCc2nc(N)sc2C1 [Pramipexole (dihydrochloride)] was run?
A: 1.504

Q: CCCN[C@H]1CCc2nc(N)sc2C1 [Pramipexole] was tested. Which Cholesterol-free did it give?
A: 1.519

Q: For CC(=O)[C@H]1CC[C@H]2[C@@H]3CC=C4C[C@@H](O)CC[C@]4(C)[C@H]3CC[C@]12C [Pregnenolone], which Cholesterol-free is on record?
A: 1.529

Same assay, conditions: NCI-H292 cells in complete media

Q: CCCN[C@H]1CCc2nc(N)sc2C1 [Pramipexole (dihydrochloride)] was tested. Which Complete did it give?
A: 1.014

Q: With CCCN[C@H]1CCc2nc(N)sc2C1 [Pramipexole] as the compound, how does the Complete read?
A: 0.8353

Q: For CC(=O)[C@H]1CC[C@H]2[C@@H]3CC=C4C[C@@H](O)CC[C@]4(C)[C@H]3CC[C@]12C [Pregnenolone], which Complete is on record?
A: 0.9655

Same assay, conditions: NCI-H292 cells, FDA drug library screen, cholesterol-free media without statin

Q: CC(=O)C1CCC2C3CC=C4CC(OS(=O)(=O)O)CCC4(C)C3CCC12C (stereo not drawn) [Pregnenolone monosulfate] was tested. Which Cholesterol-free did it give?
A: 1.032

Same assay, conditions: NCI-H292 cells, FDA drug library screen, complete media

Q: With CC(=O)C1CCC2C3CC=C4CC(OS(=O)(=O)O)CCC4(C)C3CCC12C (stereo not drawn) [Pregnenolone monosulfate] as the compound, how does the Complete read?
A: 0.9202

Same assay, conditions: NCI-H292 cells, cholesterol-free media without statin

Q: How did the Cholesterol-free turn out when CC(C)(C)CC(=O)OCC(=O)[C@@]1(O)CC[C@H]2[C@@H]3CCC4=CC(=O)C=C[C@]4(C)[C@H]3[C@@H](O)C[C@@]21C [Prednisolone Tebutate] was run?
A: 1.01

Q: With CC(=O)OCC(=O)[C@@]1(O)CC[C@H]2[C@@H]3CCC4=CC(=O)C=C[C@]4(C)[C@H]3C(=O)C[C@@]21C [Prednisone acetate] as the compound, how does the Cholesterol-free read?
A: 0.9782

Q: With O=[N+]([O-])c1cn2c(n1)OC[C@@H](OCc1ccc(OC(F)(F)F)cc1)C2 [Pretomanid] as the compound, how does the Cholesterol-free read?
A: 1.474

Same assay, conditions: NCI-H292 cells, complete media

Q: How did the Complete turn out when CC(C)(C)CC(=O)OCC(=O)[C@@]1(O)CC[C@H]2[C@@H]3CCC4=CC(=O)C=C[C@]4(C)[C@H]3[C@@H](O)C[C@@]21C [Prednisolone Tebutate] was run?
A: 0.6634

Q: How did the Complete turn out when CC(=O)OCC(=O)[C@@]1(O)CC[C@H]2[C@@H]3CCC4=CC(=O)C=C[C@]4(C)[C@H]3C(=O)C[C@@]21C [Prednisone acetate] was run?
A: 0.7806

Q: Which Complete does the source give for O=[N+]([O-])c1cn2c(n1)OC[C@@H](OCc1ccc(OC(F)(F)F)cc1)C2 [Pretomanid] here?
A: 1.26

Same assay, conditions: complete vs cholesterol-free media; greater than 0 enhanced anti-cancer activity, about 0 neutral, below 0 antagonists

Q: For CC(C)(C)CC(=O)OCC(=O)[C@@]1(O)CC[C@H]2[C@@H]3CCC4=CC(=O)C=C[C@]4(C)[C@H]3[C@@H](O)C[C@@]21C [Prednisolone Tebutate], which Difference is on record?
A: −0.35
